In publication PMC4869175, “Evidence that phytochrome functions as a protein kinase in plant light signalling” (Nature Communications, 2016):
Substitutions are numbered along the chain they refer to. Names and notes keep the numbering of the source.

T1: photosensory core of AsphyA (66-610) (Avena sativa, UniProt P06593)
T1 construct: the PAS-GAF-PHY photosensory core (66–610aa) were also cloned into pPIC3.5K; made in house; host or cells: Pichia pastoris GS115
T1 sequence (P06593 66-610): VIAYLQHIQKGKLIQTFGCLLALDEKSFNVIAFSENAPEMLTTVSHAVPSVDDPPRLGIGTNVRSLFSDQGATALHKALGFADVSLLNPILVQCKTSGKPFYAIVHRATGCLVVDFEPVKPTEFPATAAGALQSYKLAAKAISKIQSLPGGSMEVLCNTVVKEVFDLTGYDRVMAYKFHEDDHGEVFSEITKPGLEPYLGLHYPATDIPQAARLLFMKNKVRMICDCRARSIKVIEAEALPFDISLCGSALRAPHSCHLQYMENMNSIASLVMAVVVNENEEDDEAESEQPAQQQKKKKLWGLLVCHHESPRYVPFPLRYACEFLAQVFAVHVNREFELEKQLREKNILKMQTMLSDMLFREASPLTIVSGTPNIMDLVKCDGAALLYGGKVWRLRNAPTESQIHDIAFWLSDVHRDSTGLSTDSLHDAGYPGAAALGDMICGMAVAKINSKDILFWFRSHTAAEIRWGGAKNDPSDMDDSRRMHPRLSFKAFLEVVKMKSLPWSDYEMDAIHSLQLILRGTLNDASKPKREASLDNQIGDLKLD

T2: full-length AsphyA (Avena sativa, UniProt P06593)
T2 construct: Full-length phytochrome genes of AsPHYA; made in house; host or cells: Pichia pastoris GS115
T2 sequence (P06593 1-1129): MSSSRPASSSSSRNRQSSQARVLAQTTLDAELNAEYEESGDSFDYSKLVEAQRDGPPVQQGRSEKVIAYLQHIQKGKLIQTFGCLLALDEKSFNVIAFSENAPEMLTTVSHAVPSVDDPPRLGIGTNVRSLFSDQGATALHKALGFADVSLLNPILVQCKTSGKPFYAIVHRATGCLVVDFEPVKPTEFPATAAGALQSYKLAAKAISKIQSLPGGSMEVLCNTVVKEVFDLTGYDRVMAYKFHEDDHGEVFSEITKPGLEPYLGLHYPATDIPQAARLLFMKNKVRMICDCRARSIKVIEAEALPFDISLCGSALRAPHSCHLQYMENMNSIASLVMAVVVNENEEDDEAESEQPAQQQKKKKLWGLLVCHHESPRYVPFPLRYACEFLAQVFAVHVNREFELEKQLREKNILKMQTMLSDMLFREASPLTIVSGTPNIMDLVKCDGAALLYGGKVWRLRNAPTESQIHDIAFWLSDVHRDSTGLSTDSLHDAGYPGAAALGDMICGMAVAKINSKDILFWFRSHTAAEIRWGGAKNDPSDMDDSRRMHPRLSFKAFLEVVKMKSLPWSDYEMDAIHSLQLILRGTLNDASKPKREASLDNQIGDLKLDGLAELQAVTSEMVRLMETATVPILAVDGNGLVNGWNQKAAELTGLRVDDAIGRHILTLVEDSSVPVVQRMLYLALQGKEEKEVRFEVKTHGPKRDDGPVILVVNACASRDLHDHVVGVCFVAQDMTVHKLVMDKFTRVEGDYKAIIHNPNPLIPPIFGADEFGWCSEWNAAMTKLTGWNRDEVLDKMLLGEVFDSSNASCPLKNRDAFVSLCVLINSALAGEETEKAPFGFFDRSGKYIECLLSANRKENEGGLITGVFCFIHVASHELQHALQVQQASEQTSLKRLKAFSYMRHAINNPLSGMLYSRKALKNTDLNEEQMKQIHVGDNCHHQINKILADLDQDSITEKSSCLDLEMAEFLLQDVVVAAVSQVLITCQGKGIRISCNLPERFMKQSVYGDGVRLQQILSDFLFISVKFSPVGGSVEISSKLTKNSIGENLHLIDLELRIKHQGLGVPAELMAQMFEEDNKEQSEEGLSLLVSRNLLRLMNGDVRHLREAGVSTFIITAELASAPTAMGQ

B1: Avena sativa phytochrome A, full-length wild type (natural protein, UniProt P06593 1-1129, looked up)
chain: T2 sequence (P06593 1-1129)
modifications: phycocyanobilin chromophore assembled (chromophore-binding site C322)
notes: Avena sativa (oat) phytochrome A, full-length gene AsPHYA; 1129 residues by the printed construct limits (66-1129aa); Used as Pr (far-red irradiated) and Pfr (red irradiated) forms; also called AsphyA; FL-AsphyA; source: phycocyanobilin added in vitro
B2: AsphyA T418D, full length (natural protein, Avena sativa, UniProt P06593 1-1129, looked up)
chain: T2 sequence (P06593 1-1129) with T418D
modifications: phycocyanobilin chromophore assembled
notes: Avena sativa phytochrome A, full length, with T418D; source: phycocyanobilin added in vitro
B3: GST/strep-fused Arabidopsis PIF4 (natural protein, UniProt Q8W2F3 1-430, looked up)
chain: MEHQGWSFEENYSLSTNRRSIRPQDELVELLWRDGQVVLQSQTHREQTQTQKQDHHEEALRSSTFLEDQETVSWIQYPPDEDPFEPDDFSSHFFSTMDPLQRPTSETVKPKSSPEPPQVMVKPKACPDPPPQVMPPPKFRLTNSSSGIRETEMEQYSVTTVGPSHCGSNPSQNDLDVSMSHDRSKNIEEKLNPNASSSSGGSSGCSFGKDIKEMASGRCITTDRKRKRINHTDESVSLSDAIGNKSNQRSGSNRRSRAAEVHNLSERRRRDRINERMKALQELIPHCSKTDKASILDEAIDYLKSLQLQLQVMWMGSGMAAAAASAPMMFPGVQPQQFIRQIQSPVQLPRFPVMDQSAIQNNPGLVCQNPVQNQIISDRFARYIGGFPHMQAATQMQPMEMLRFSSPAGQQSQQPSSVPTKTTDGSRLDH
notes: Arabidopsis PIF4 (NM_180050); not shown: GST, N-terminal, kept
B4: AsphyA D422R, full length (natural protein, Avena sativa, UniProt P06593 1-1129, looked up)
chain: T2 sequence (P06593 1-1129) with D422R
modifications: phycocyanobilin chromophore assembled
notes: Avena sativa phytochrome A, full length, with D422R; source: phycocyanobilin added in vitro
B5: AsphyA K411L, full length (natural protein, Avena sativa, UniProt P06593 1-1129, looked up)
chain: T2 sequence (P06593 1-1129) with K411L
modifications: phycocyanobilin chromophore assembled
notes: Avena sativa phytochrome A, full length, with K411L; source: phycocyanobilin added in vitro

Tests used:
[1] = target: T1, photosensory core of AsphyA (66-610); assay: Binding parameters of ATP by Scatchard plot using BODIPY-FL-ATP
Protocol: (§1) To estimate dissociation constant (Kd) and the number of binding sites (n) of ATP in AsphyA proteins, an ATP analogue BODIPY-FL-ATP (BODIPY FL 2′-(or-3′)-O-(N-(2-aminoethyl)urethane) adenosine triphosphate; Molecular Probes) was used. 0.5 μM AsphyA proteins were incubated with increasing concentration of BODIPY-FL-ATP (0.5–5 μM) for 10 min at 30 °C, and free (unbound) ATP analogue was separated from the ATP analogue-protein complex by using Amicon Ultra Centrifugal Filter with MWCO of 10,000 Da for 5 min at 4,000g. The spectrophotometric absorbance was then measured to determine the BODIPY-FL-ATP concentrations within flow-through and the complex solutions by using Shimadzu UV-1800 spectrophotometer. […] The concentrations of BODIPY-FL-ATP were also double-checked by measuring the emission intensity of BODIPY fluorophore at the excitation wavelength of 500 nm and emission wavelength of 515 nm. The fluorescence of free BODIPY-FL-ATP in the absence of any protein component was used as a linear standard curve. The Kd and n values were then calculated by a Scatchard plot of r/[BODIPY-FL-ATP]free versus r, where r is the molar ratio of [BODIPY-FL-ATP]bound to [AsphyA]total.
(§2) Supplementary Figure 12. Determination of binding parameters of ATP in AsphyA proteins. The number of binding sites (n) and dissociation constant (Kd) of ATP in AsphyA proteins were determined by Scatchard plots using an ATP analogue, BODIPY-FL-ATP (BODIPY® FL 2′-(or-3′)-O-(N-(2-aminoethyl)urethane) adenosine triphosphate). The n and Kd values were calculated from the slopes (-1/Kd) and x-axis intercepts (n) of the Scatchard plot of r/[BODIPY-FL-ATP]free versus r, where r was the molar ratio of [BODIPY-FL-ATP]bound to [AsphyA]total. The n values of full-length (FL) AsphyA and photosensory core (66-610) were both calculated at around one per polypeptide, and the Kd values were calculated at approximately 0.87 × 10^-6 M for FL-AsphyA, 0.72 × 10^-6 M for […]
(§3) level, possibly due to too low ATP binding.
(§4) (1 picture or pasted object on this page, not shown here)

[2] = target: T3, T418D AsphyA mutant (Avena sativa, UniProt P06593, T418D); assay: as above
T3 construct: After preparing purified full-length AsphyA mutants; made in house; host or cells: Pichia pastoris GS115
Protocol: as §1, §2, §3, §4

[3] = target: T4, D422R AsphyA mutant (Avena sativa, UniProt P06593, D422R); assay: as above; details: Scatchard plot with BODIPY-FL-ATP; result in words
T4 construct: After preparing purified full-length AsphyA mutants; made in house; host or cells: Pichia pastoris GS115
Protocol: as §1, §2, §3, §4

[4] = target: T2, full-length AsphyA; assay: as above
Protocol: as §1, §2, §3, §4

[5] = target: T5, K411L AsphyA mutant (Avena sativa, UniProt P06593, K411L); assay: as above
T5 construct: After preparing purified full-length AsphyA mutants; made in house; host or cells: Pichia pastoris GS115
Protocol: as §1, §2, §3, §4

[6] = target: the molecule itself; assay: SEC; size-exclusion chromatography of purified full-length AsphyA proteins; molecular masses estimated
[7] = target: B1; assay: pull-down; GST/strep-fused interacting protein (1.0 μg) held on glutathione resin, phytochrome (1.0 μg) in solution, Pr and Pfr forms both tested; 60 min at 4 °C in pull-down buffer (100 mM Tris-HCl pH 7.8, 1 mM EDTA, 150 mM NaCl, 100 μg/ml BSA); western blot with oat22 and anti-GST; details: both partners purified
[8] = Scatchard plot with BODIPY-FL-ATP
[9] = Scatchard plot, 0.5 μM protein, BODIPY-FL-ATP 0.5–5 μM, 10 min at 30 °C, read-out: dissociation constant (Kd) of ATP

T3 sequence (P06593 whole entry T418D): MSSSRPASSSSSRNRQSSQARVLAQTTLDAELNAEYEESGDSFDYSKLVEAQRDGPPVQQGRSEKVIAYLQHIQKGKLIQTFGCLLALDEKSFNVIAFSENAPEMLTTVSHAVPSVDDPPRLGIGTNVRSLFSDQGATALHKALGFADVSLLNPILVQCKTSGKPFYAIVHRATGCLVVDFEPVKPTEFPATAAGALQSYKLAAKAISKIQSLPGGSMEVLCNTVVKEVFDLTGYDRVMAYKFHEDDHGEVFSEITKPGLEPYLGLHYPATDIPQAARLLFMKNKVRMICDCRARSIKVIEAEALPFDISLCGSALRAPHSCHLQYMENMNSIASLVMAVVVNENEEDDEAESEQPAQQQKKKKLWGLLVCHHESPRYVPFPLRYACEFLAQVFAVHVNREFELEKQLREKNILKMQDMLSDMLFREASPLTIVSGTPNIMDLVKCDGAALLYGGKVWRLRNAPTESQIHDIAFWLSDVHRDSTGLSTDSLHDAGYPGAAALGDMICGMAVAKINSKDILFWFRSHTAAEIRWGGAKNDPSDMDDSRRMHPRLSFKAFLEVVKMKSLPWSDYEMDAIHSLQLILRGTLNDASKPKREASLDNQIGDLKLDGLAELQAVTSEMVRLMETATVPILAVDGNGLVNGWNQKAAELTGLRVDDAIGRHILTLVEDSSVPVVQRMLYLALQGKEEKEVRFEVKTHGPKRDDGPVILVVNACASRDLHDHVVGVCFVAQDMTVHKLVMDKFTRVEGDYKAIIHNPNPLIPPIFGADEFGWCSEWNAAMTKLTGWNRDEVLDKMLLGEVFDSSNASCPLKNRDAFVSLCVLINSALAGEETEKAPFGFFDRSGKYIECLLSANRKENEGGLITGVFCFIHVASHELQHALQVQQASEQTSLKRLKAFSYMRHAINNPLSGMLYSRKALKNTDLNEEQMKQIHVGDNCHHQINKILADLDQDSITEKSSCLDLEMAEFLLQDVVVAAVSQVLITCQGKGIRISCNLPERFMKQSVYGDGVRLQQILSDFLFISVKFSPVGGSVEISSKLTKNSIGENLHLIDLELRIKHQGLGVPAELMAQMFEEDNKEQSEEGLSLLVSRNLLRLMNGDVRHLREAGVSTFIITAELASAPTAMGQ
T5 sequence (P06593 whole entry K411L): as the sequence (P06593 whole entry T418D) above, with K411L, D418T counted along it
T4 sequence (P06593 whole entry D422R): as the sequence (P06593 whole entry T418D) above, with D418T, D422R counted along it

Molecule: CC1=CC(C)=[N+]2C1=Cc1ccc(CCC(=O)NCCNC(=O)O[C@H]3[C@@H](O)[C@H](n4cnc5c(N)ncnc54)O[C@@H]3COP(=O)(O)OP(=O)(O)OP(=O)(O)O)n1[B-]2(F)F [BODIPY-FL-ATP, BODIPY FL 2′-(or-3′)-O-(N-(2-aminoethyl)urethane) adenosine triphosphate]
number of binding sites (n) of ATP [1, 8]: approximately one
Kd [1, 9]: 720 nM
Kd [2]: ~4760 nM
dissociation constant (Kd) of ATP [3]: unable to obtain the Kd value
number of binding sites (n) of ATP [4, 8]: approximately one
Kd [4, 9]: ~870 nM
Kd [5]: ~1320 nM

Molecule: B1
binding result [6]: binds

Molecule: B2
stoichiometry N [6]: 2

Molecule: B3
binding result [7]: binds

Molecule: B4
stoichiometry N [6]: 2

Molecule: B5
stoichiometry N [6]: 2
